For data set [1], the system named is HNSCC cell lines. Kind of data set: CellTiter-Glo cell viability assay. The note with it: for cell viability, NOTCH1MUT and NOTCH1WT cell lines: 0-200 nM. The class given is cell-based, human. On the procedure: Cell viability assay. […] A CellTiter-Glo luminescent cell viability assay (Promega, Madison, WI) was performed as described previously (Castel et al., 2016; Muellner et al., 2011). Inhibitory concentration (ICs) and area under the curve (AUC) values were calculated using the drexplorer R package with a best-fit dose-response model (Zumsteg et al., 2016). The combination indices were calculated using the Chou-Talalay method (Cal et al., 2017) in CalcuSyn (Biosoft, Cambridge, UK). We tested the reproducibility and robustness of the data generated using three quality control parameters as described previously (Bohnacker et al., 2017). These parameters were the concordance correlation coefficient, location shift, and maximum standard deviation between two biological replicates for three technical and two biological replicates. Based on heuristics from our previous screening studies in lung cancer (Bohnacker et al., 2017), the cut-offs for reproducibility were a concordance correlation coefficient greater than 0.8, a location shift less than 0.9, and a standard deviation less than 0.23 based on the normal mixture fit model. Experiments not satisfying these criteria were repeated. The replicate with the smallest experimental variation measured by the median of standard deviation was chosen as a representative of the replicates, and its IC values served as the final values for subsequent analysis.
Cell lines were classified as sensitive based on IC70 values less than the peak plasma concentration for each drug. To determine if cross-comparison of the PI3K/mTOR inhibitors as a class was feasible, their drug sensitivity patterns were compared with those of three cell cycle kinase inhibitors tested previously (Zhang et al., 2017). The PI3K/mTOR pathway inhibitors clustered separately from the cell cycle inhibitors (FIG. 12C).

Data set [2] relates to pAKT, pS6 and p4EBP1 in HNSCC cell lines. As to the kind of experiment: Western blot of PI3K pathway signaling after bimiralisib. The format is cell-based, human. The note with it: four HNSCC cell lines, 2 hours. On the procedure: Cells were lysed and then resolved by SDS PAGE. Western blot analysis was performed using the indicated antibodies.
In data set [3] the test system is HNSCC cell lines. As to the kind of experiment: Sensitivity of 69 HNSCC cell lines to bimiralisib. The class given is cell-based, human. The source says: IC50 values were estimated from the best-fit dose-response model selected by calculating residual standard error using the R packages Dose Finding and drc (dose response curve) (Ritz and Streibig 2005, Bornkamp, Bretz et al. 2011). All experiments were done in duplicate and we compared the response between two experiments using concordance correlation coefficient (CCC). The CCC can be computed based on the scaled response as well as original unscaled response. The scaled version should be more relevant since this is actually the data used in IC estimation. […] To identify differentially expressed features between the comparative groups, we applied modified two-sample t-tests using the Limma package. The beta-uniform mixture (BUM) model, described by Pounds and Morris was used to control false discovery rate (FDR) (Pounds and Morris 2003).

Data set [4] concerns HNSCC cell lines. Kind of data set: BrdU TUNEL cell death, cell cycle and apoptosis markers after bimiralisib. The format is cell-based, human. The note with it: 5 μM. The source says:
Apoptotic death in NOTCH1 mutants, but not wt cell lines, was confirmed with cleaved PARP and Caspase 3.

The subject of data set [5] is other protein kinases. The settings on record: cited from earlier work.
The conditions of data set [6]: human, oral; cited from earlier work.
The conditions of data set [7]: administered orally; cited from earlier work.
In data set [8] the test system is pAKT, pS6 and p4EBP. The note with it: therapeutic doses; cited from earlier work.
Data set [9] deals with UM22A, HN31 and FaDu HNSCC xenografts. Kind of data set: Orthotopic tongue xenografts treated with bimiralisib. The settings on record: for tumor growth: 50 mg/kg PO once daily 28 days.
Data set [10] has as its system HNSCC cell lines. As to the kind of experiment: Apoptosis assays (Annexin V/propidium iodide, BrdU TUNEL, cleaved PARP/caspase 3). The format is cell-based, human. The note with it: alone, regardless of NOTCH1 status. On the procedure: FIGS. 7A-7D: PI3K/mTOR signaling inhibition induces cell death in NOTCH1^MUT but not NOTCH1^WT head and neck squamous cell carcinoma (HNSCC) cell lines in vitro. FIG. 7A. Annexin V/propidium iodide or BrDU-terminal deoxynucleotidyl transferase (TdT) dUTP nick-end labeling (TUNEL) assays were used to measure apoptosis in HNSCC cells with the indicated NOTCH1 and PIK3CA mutations, which were treated with 50 nM GSK2126458 (GSK212) for 24 or 48 hours, respectively. Values are the means±standard deviations of three independent experiments. *p<0.05, unpaired two-tailed Student t-test. FIG. 7B. Western blotting of cleaved PARP (Cl-PARP) and cleaved caspase 3 (Cl-Caspase 3) levels in mutant and wild type cells after GSK212 treatment for 48 hours. FIG. 7C. NOTCH1^MUT and NOTCH1^WT HNSCC cells were plated sparsely and treated with GSK212 at the indicated concentrations for 48 hours. At 14-21 days after treatment, the cells were fixed and stained, images were captured using the GelCount Tumour Colony Counter, and colony numbers and the colorimetric intensity of the colonies were determined by measuring the optical density (OD) at 570 nm. Values are the means±standard deviations of three independent experiments. *p<0.001, unpaired two-tailed Student t-test. FIG. 7D. Three NOTCH1^WT lines (black text and bars) and three NOTCH1^MUT lines (red text and bars) were treated with increasing concentrations of GSK212 for 4 hours, and levels of PI3K/mTOR pathway proteins were measured by Western blot analysis.
Western blot analysis. Western blot analysis was performed as described previously (Ferrarotto et al., 2016). In brief, cells were lysed with ice-cold lysis buffer, and the lysates were centrifuged at 20,000×g for 10 minutes at 4° C. Cell samples containing equal amounts of protein were resolved using sodium dodecyl sulfate-polyacrylamide gel electrophoresis, transferred to nitrocellulose membranes, and immunoblotted with different primary antibodies. Protein expression was detected using a horseradish peroxidase-conjugated secondary antibody (Bio-Rad, Hercules, CA) and electrochemiluminescence reagent (Amersham Biosciences, Pittsburg, PA).
Apoptosis and cell cycle assays. To measure apoptosis, we performed terminal deoxynucleotidyl transferase dUTP nick end labeling (TUNEL) staining with an APO-BRDU Kit (BD Biosciences, San Jose, CA) and Annexin V/propidium iodide staining with an FITC Annexin V Apoptosis Detection Kit (BD Pharmingen, San Diego, CA) as described previously (Chandarlapaty et al., 2011). […] Data were acquired with a three-laser, 10-color Gallios flow cytometer (Beckman Coulter, Brea, CA) and analyzed using Kaluza software (Beckman Coulter, Brea, CA). […]

Data set [11] concerns EGFR^MUT lung cancers. The note with it: EGFRMUT lung cancers; cited from earlier work.

A word on the IC50: it is the concentration that gives 50% inhibition. Low readings indicate greater potency, high ones weaker potency. Usually Tmax stands for the time at which the peak concentration occurs.

Take `CO[C@H]1C[C@@H]2CC[C@@H](C)[C@@](O)(O2)C(=O)C(=O)N2CCCC[C@H]2C(=O)O[C@H]([C@H](C)C[C@@H]2CC[C@@H](OP(C)(C)=O)[C@H](OC)C2)CC(=O)[C@H](C)/C=C(\C)[C@@H](O)[C@@H](OC)C(=O)[C@H](C)C[C@H](C)/C=C/C=C/C=C/1C` [ridaforolimus]: the “cell viability, NOTCH1MUT and NOTCH1WT cell lines” value in data set [1] (72 hours) is listed as “resistant”.

With `Nc1cc(C(F)(F)F)c(-c2nc(N3CCOCC3)nc(N3CCOCC3)n2)cn1` [bimiralisib, 5-(4,6-Dimorpholino-1,3,5-triazin-2-yl)-4-(trifluoromethyl)pyridin-2-amine], the figures for the “pAKT, pS6 and p4EBP1 (Western blot)” value in [2] and in data set [2] (listed as Bimiralisib) were “decrease” and “inhibits PI3K pathway signaling”, respectively. This molecule came in with an IC50 in data set [3] (Homo sapiens, 66 of 69 HNSCC cell lines) below 3000 nM. Moreover, the figures for the “number of cell lines Resistant” value in data set [3] (NOTCH1 Mutant cell lines) and in data set [3] (NOTCH1 WT cell lines) were 3 and 20, respectively. Besides, the “number of cell lines Sensitive” value in [3] (NOTCH1 Mutant cell lines) worked out at 12; in data set [3] (NOTCH1 WT cell lines), 18. Further, in data set [4] (48 hours, HNSCC lines with NOTCH1 mutations), the “cell death by BrdU-TUNEL” value is “significantly increased”. The cell cycle effect result in data set [4] (HNSCC NOTCH1wt lines) is given as “arrested cell lines in G1/S”. For the same molecule, the “inhibition of other protein kinases (KINOMEscan)” value in [5] is “does not significantly inhibit”. Also, in [6], the Tmax is below 2 h. Also, the terminal half-life in [6] is 51 h. The “crossing of the blood-brain barrier” value in [7] is recorded as “crosses the blood-brain barrier”. Further, in data set [8], the “pAKT, pS6 and p4EBP in tumor tissue” value is on record as “marked decreases”. The tumor growth result in data set [9] (FaDu (NOTCH1wt)) was “not affected”; in data set [9] (UM22A and HN31 (NOTCH1 inactivating mutations)) it was “significant reduction of tumor growth”. Besides, the body weight result in data set [9] (50 mg/kg PO once daily, 28 days, mice) was “without body weight loss”.

With `NC1(c2ccc(-c3nc4ccn5c(=O)[nH]nc5c4cc3-c3ccccc3)cc2)CCC1` [MK-2206], in data set [1] (72 hours), the “cell viability, NOTCH1MUT and NOTCH1WT cell lines” value is “resistant”.

On to `CNc1nc(-c2ccc3c(N)n[nH]c3c2)cc(N2C[C@@H](C(=O)NC3CCCCC3)CC[C@H]2C)n1` [GSK2334470], for which, in data set [1] (alone, regardless of NOTCH1 status), the cell viability entry is listed as “little effect”. In addition, in [10], the apoptosis result is “little effect”.

As for `COc1c(OCCCN2CCOCC2)ccc2c1N=C(NC(=O)c1cnc(N)nc1)N1CCN=C21` [BAY806946], in [1] (72 hours), the “cell viability, NOTCH1MUT and NOTCH1WT cell lines” value is recorded as “differential effects”.

In the case of `C=CC(=O)Nc1cc(Nc2nccc(-c3cn(C)c4ccccc34)n2)c(OC)cc1N(C)CCN(C)C` [osimertinib], the response rate entry in data set [11] is given as “about 80%”.

Turning to `Nc1cc(C(F)(F)F)c(-c2cc(N3CCOCC3)nc(N3CCOCC3)n2)cn1` [BKM120], in data set [1] (59 HNSCC cell lines, 72 hours), the “effectiveness across HNSCC cell lines (IC70)” value is “almost universally effective”.

The values above are taken from patent US12195804B2, “Treatment of squamous cell carcinoma” (Board of Regents, The University of Texas System, priority 2018, dated 2025).
